Reference: patent US4459290A, “C-23-Modified derivatives of OMT, pharmaceutical compositions and method of use” (priority 1982, dated 1984)
In brackets after ≈: the same amount, converted by molar mass. Like-named read-outs stand apart in the source and are kept apart here.

Experiments:
these strains = experiment: Activity against the strains of Table VI, agar-dilution; assay type: cell-based; details: at the levels tested
Method: (§1) Especially noteworthy is the improved activity against gram-negative bacteria for several derivatives when compared to the activity of OMT. […] The MIC's in Tables V and VI were determined by standard agar-dilution assays. The MIC's in Table VII were obtained using a conventional broth-dilution microtiter test.

Pasteurella multocida = experiment: Protection of one-day-old chicks against Pasteurella multocida infection (Table IX); assay type: in vivo; details: subcutaneous 30 mg/kg × 2, 1 and 4 hours post-challenge
In short: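 One-day-old chicks were challenged subcutaneously with 0.1 ml of a twenty-hour tryptose broth culture of avian P. multocida. Compound was given subcutaneously at 30 mg/kg, 1 and 4 hours post-challenge, and protection against death was followed, with non-medicated infected chicks as controls.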

[1] = tested on: Staphylococcus epidermidis EPI1; experiment: MIC, standard agar-dilution assay (Table V); assay type: cell-based; details: Staphylococcus epidermidis; S. epidermidis EPI1; agar dilution; read-out: MIC
Method: as §1

[2] = tested on: Staphylococcus aureus V41; experiment: MIC, standard agar-dilution assay (Table V); assay type: cell-based; details: Staphylococcus aureus; S. aureus V41, penicillin-resistant strain; agar dilution; read-out: MIC
Method: as §1

[3] = tested on: Staphylococcus epidermidis EPI2; experiment: MIC, standard agar-dilution assay (Table V); assay type: cell-based; details: Staphylococcus epidermidis; S. epidermidis EPI2; agar dilution; read-out: MIC
Method: as §1

Escherichia coli EC14 = experiment: MIC, standard agar-dilution assay (Table V); assay type: cell-based; details: Escherichia coli; E. coli EC14; agar dilution; read-out: MIC
In short: (§2)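 Growth inhibition in liquid medium, in a routine microtiter broth-dilution series, gave the MIC against staphylococci and pasteurellae; the gram-negative enteric strain was tested by conventional agar dilution instead.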

Streptococcus Group 9960 = experiment: MIC, standard agar-dilution assay (Table V); assay type: cell-based; details: GROUP9960; Streptococcus Group 9960; agar dilution; read-out: MIC
Method: as §1

Shigella sonnei N9 = experiment: MIC, standard agar-dilution assay (Table V); assay type: cell-based
In short: as §2

[4] = tested on: Staphylococcus aureus X400; experiment: MIC, standard agar-dilution assay (Table V); assay type: cell-based; details: Staphylococcus aureus; S. aureus X400, methicillin-resistant strain; agar dilution; read-out: MIC
Method: as §1

Escherichia coli N10 = experiment: MIC, standard agar-dilution assay (Table V); assay type: cell-based; details: Escherichia coli; E. coli N10; agar dilution; read-out: MIC
In short: as §2

[5] = tested on: Klebsiella pneumoniae X26; experiment: MIC, standard agar-dilution assay (Table V); assay type: cell-based; details: Klebsiella pneumoniae, X26
Method: as §1

[6] = tested on: Staphylococcus aureus S13E; experiment: MIC, standard agar-dilution assay (Table V); assay type: cell-based; details: Staphylococcus aureus, S13E
Method: as §1

[7] = tested on: Klebsiella pneumoniae KAE; experiment: MIC, standard agar-dilution assay (Table V); assay type: cell-based; details: Klebsiella pneumoniae; K. pneumoniae KAE; agar dilution; read-out: MIC
In short: as §2

[8] = tested on: Staphylococcus aureus X1.1; experiment: MIC, standard agar-dilution assay (Table V); assay type: cell-based; details: Staphylococcus aureus, X1.1
Method: as §1

[9] = tested on: Streptococcus Group D X66; experiment: MIC, standard agar-dilution assay (Table V); assay type: cell-based; details: Streptococcus Group D X66; agar dilution; read-out: MIC
Method: as §1

Escherichia coli TEM = experiment: MIC, standard agar-dilution assay (Table V); assay type: cell-based; details: Escherichia coli
Method: (§3) The MIC's in Tables V and VI were determined by standard agar-dilution assays. The MIC's in Table VII were obtained using a conventional broth-dilution microtiter test.

[10] = tested on: Haemophilus influenzae Holt; experiment: MIC, standard agar-dilution assay (Table V); assay type: cell-based; details: Haemophilus influenzae
Method: as §3

[11] = tested on: Haemophilus influenzae R252; experiment: MIC, standard agar-dilution assay (Table V); assay type: cell-based; details: Haemophilus influenzae, R252
Method: as §3

[12] = tested on: Streptococcus pyogenes C203; experiment: MIC, standard agar-dilution assay (Table V); assay type: cell-based; details: Streptococcus pyogenes, C203
Method: as §3

[13] = tested on: Pasteurella multocida 22A; experiment: MIC, broth-dilution microtiter test (Table VII); assay type: cell-based; details: Pasteurella multocida; P. multocida 22A; broth-dilution microtiter; read-out: MIC
In short: (§4)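 MICs were determined two ways: a standard agar-dilution assay for the Enterobacter aerogenes strain, and a conventional broth-dilution microtiter test for Staphylococcus aureus and both Pasteurella multocida strains.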

[14] = tested on: Pasteurella hemolytica 41D; experiment: MIC, broth-dilution microtiter test (Table VII); assay type: cell-based; details: Pasteurella, P. hemolytica 41D, read-out: MIC
In short: (§5)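 Broth microdilution, run as a conventional microtiter test, supplied MICs for the gram-positive S. aureus and the Pasteurella isolates. Enterobacter data instead rest on a standard agar-dilution procedure.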

Mycoplasma gallisepticum = experiment: MIC, broth-dilution microtiter test (Table VII); assay type: cell-based; details: Mycoplasmoides gallisepticum; M. gallisepticum; broth-dilution microtiter; read-out: MIC
Method: as §1

Mycoplasma synoviae = experiment: MIC, broth-dilution microtiter test (Table VII); assay type: cell-based; details: Mycoplasmopsis synoviae; M. synoviae; broth-dilution microtiter; read-out: MIC
Method: as §1

Mycoplasma hyorhinis = experiment: MIC, broth-dilution microtiter test (Table VII); assay type: cell-based; details: M. hyorhinis; broth-dilution microtiter; read-out: MIC
Method: as §1

Streptococcus sp. 80 = experiment: MIC, broth-dilution microtiter test (Table VII); assay type: cell-based; details: Streptococcus sp. 80; broth-dilution microtiter; read-out: MIC
Method: as §1

[15] = tested on: Pasteurella multocida 40G; experiment: MIC, broth-dilution microtiter test (Table VII); assay type: cell-based; details: Pasteurella multocida; P. multocida 40G; broth-dilution microtiter; read-out: MIC
In short: as §4

[16] = tested on: Pasteurella multocida 17E; experiment: MIC, broth-dilution microtiter test (Table VII); assay type: cell-based; details: Pasteurella multocida; P. multocida 17E, bovine isolate; broth-dilution microtiter; read-out: MIC
In short: as §4

[17] = tested on: Pasteurella multocida 68C; experiment: MIC, broth-dilution microtiter test (Table VII); assay type: cell-based; details: Pasteurella multocida; P. multocida 68C; broth-dilution microtiter; read-out: MIC
In short: as §4

Staphylococcus aureus = experiment: MIC, broth-dilution microtiter test (Table VII); assay type: cell-based; details: Staphylococcus aureus; S. aureus; broth-dilution microtiter; read-out: MIC
In short: as §4

[18] = tested on: Pasteurella hemolytica 22C; experiment: MIC, broth-dilution microtiter test (Table VII); assay type: cell-based; details: Pasteurella, P. hemolytica 22C, read-out: MIC
In short: as §5

[19] = tested on: Pasteurella multocida 60A; experiment: MIC, broth-dilution microtiter test (Table VII); assay type: cell-based; details: Pasteurella multocida; P. multocida 60A, avian isolate; broth-dilution microtiter; read-out: MIC
In short: as §4

[20] = tested on: Pasteurella hemolytica 23C; experiment: MIC, broth-dilution microtiter test (Table VII); assay type: cell-based; details: Pasteurella, P. hemolytica 23C, read-out: MIC
In short: as §5

[21] = tested on: Streptococcus pneumoniae Park I; experiment: microbe, parasite or virus in culture; assay type: cell-based; details: Streptococcus pneumoniae; read-out: MIC
Method: as §1

[22] = tested on: Streptococcus pyogenes C203; experiment: ED50 in mice experimentally infected with S. pyogenes C203 (Table VIII); assay type: in vivo
Method: The C-23 modified derivatives of OMT of this invention have shown in vivo antimicrobial activity against experimental infections. When two doses of test compound were administered to mice experimentally infected with a gram-positive bacterium, S. pyogenes C203, the activity observed was measured as an ED50 value [effective dose in mg/kg to protect 50% of the test animals: see Warren Wick, et al., J. Bacteriol. 81, 233-235 (1961)].

With `CCC1OC(=O)CC(O)C(C)C(OC2OC(C)C(O)C(N(C)C)C2O)C(CC=O)CC(C)C(=O)C=CC(C)=CC1CSc1nnc(C)o1` (centres unmarked) [Compound 4] the “activity against these strains” value (these strains) was “did not show activity”, the “Number of deaths/number treated” value (Pasteurella multocida) was 8/10 and the MIC [1] was 0.25 µg/mL (≈ 0.359 µM). It also gave an MIC [2] of 0.5 µg/mL (≈ 0.719 µM), an MIC [3] of 0.5 µg/mL (≈ 0.719 µM) and an MIC (Escherichia coli EC14) greater than 128 µg/mL. The MIC (Streptococcus Group 9960) was 0.5 µg/mL (≈ 0.719 µM), the MIC (Shigella sonnei N9) was 64 µg/mL (≈ 92 µM) and the MIC [4] was 0.5 µg/mL (≈ 0.719 µM). For the same compound, the MIC (Escherichia coli N10) was greater than 128 µg/mL, the MIC [5] was 8 µg/mL (≈ 11.5 µM) and the MIC [6] was 0.25 µg/mL (≈ 0.359 µM). The MIC [7] was greater than 128 µg/mL, the MIC [8] was 0.25 µg/mL (≈ 0.359 µM) and the MIC [9] was 0.5 µg/mL (≈ 0.719 µM). For the same compound, the MIC (Escherichia coli TEM) was 32 µg/mL (≈ 46 µM), the MIC [10] was 4 µg/mL (≈ 5.75 µM) and the MIC [11] was 4 µg/mL (≈ 5.75 µM). For the same compound, the MIC [12] was 0.25 µg/mL (≈ 0.359 µM), the MIC [13] was 6.25 µg/mL (≈ 8.98 µM) and the MIC [14] was 12.5 µg/mL (≈ 18 µM). For the same compound, the MIC (Mycoplasma gallisepticum) was 0.39 µg/mL (≈ 0.56 µM), the MIC (Mycoplasma synoviae) was 0.78 µg/mL (≈ 1.12 µM) and the MIC (Mycoplasma hyorhinis) was 6.25 µg/mL (≈ 8.98 µM). It also gave an MIC (Streptococcus sp. 80) of 0.39 µg/mL (≈ 0.56 µM), an MIC [15] of 3.12 µg/mL (≈ 4.48 µM) and an MIC [16] of 6.25 µg/mL (≈ 8.98 µM). The MIC [17] was 6.25 µg/mL (≈ 8.98 µM), the MIC (Staphylococcus aureus) was 1.56 µg/mL (≈ 2.24 µM) and the MIC [18] was 12.5 µg/mL (≈ 18 µM). The MIC [19] was 6.25 µg/mL (≈ 8.98 µM), the MIC [20] was 12.5 µg/mL (≈ 18 µM) and the MIC [21] was 0.06 µg/mL (≈ 0.0862 µM). It also gave an ED50 ([22]; C203, po, read-out: ED50, Oral) greater than 100 mg/kg and an ED50 ([22]; C203, sc, mice, subcutaneous, doses given 1 and 4 hours postinfection, read-out: ED50, Subcutaneous) of 12.6 mg/kg.
